# Measurements as given in patent US7528148B2, “Pyrazolo[3,4-B]pyridine compounds, and their use as phosphodiesterase inhibitors” (Glaxo Group Limited, priority 2002, dated 2009).
# Target: T1, PDE4B (human recombinant) (Homo sapiens, UniProt Q07343)
# T1 construct: made in house; host or cells: Saccharomyces cerevisiae strain GL62 (PDE-deficient)
# Assay: PDE4B inhibition, radioactive SPA or IMAP fluorescence polarisation (FP) assay
# Type: biochemical
# Conditions: one reading or average of ca. 2-6 readings, accurate only to about ±0.5 log unit, read-out: PDE4B pIC50 (±about 0.5) (converted)
# Text: Human recombinant PDE4B, in particular the 2B splice variant thereof (HSPDE4B2B), is disclosed in WO 94/20079 and also M. M. McLaughlin et al., “A low Km, rolipram-sensitive, cAMP-specific phosphodiesterase from human brain: cloning and expression of cDNA, biochemical characterisation of recombinant protein, and tissue distribution of mRNA”, J. Biol. Chem., 1993, 268, 6470-6476. Human recombinant PDE4B was expressed in the PDE-deficient yeast Saccharomyces cerevisiae strain GL62. 100,000×g supernatant fractions of yeast cell lysates were used for PDE4B assays and inhibitor studies.
# The ability of compounds to inhibit catalytic activity at PDE4B or 4D (human recombinant), PDE3 (from bovine aorta) or PDE5 (human recombinant) or PDE6 (from bovine retina) was determined by Scintillation Proximity Assay (SPA) in 96-well format. Test compounds (preferably as a solution in DMSO, e.g. about 2 microlitre (ul) volume of DMSO solution) were preincubated at ambient temperature (room temperature, e.g. 19-23° C.) in Wallac Isoplates (code 1450-514) with PDE enzyme in 50 mM Tris-HCl buffer pH 7.5, 8.3 mM MgCl2, 1.7 mM EGTA, 0.05% (w/v) bovine serum albumin for 10-30 minutes (usually 30 minutes). The enzyme concentration was adjusted so that no more than 20% hydrolysis of the substrate defined below occurred in control wells without compound, during the incubation. For PDE3, PDE4B and PDE4D assays, [5′,8-^3H]Adenosine 3′,5′-cyclic phosphate (Amersham Pharmacia Biotech, code TRK.559; or Amersham Biosciences UK Ltd, Pollards Wood, Chalfont St Giles, Buckinghamshire HP8 4SP, UK) was added to give 0.05 uCi per well and ˜10 nM final concentration. For the PDE5 and PDE6 assay [8-^3H]Guanosine 3′,5′-cyclic phosphate (Amersham Pharmacia Biotech, code TRK.392) was added to give 0.05 uCi per well and ˜36 nM final concentration. Plates, preferably containing approx. 100 ul volume of assay mixture, were mixed on an orbital shaker for 5 minutes and incubated at ambient temperature for 1 hour. Phosphodiesterase SPA beads (Amersham Pharmacia Biotech, code RPNQ 0150) were added (˜1 mg per well) to terminate the assay. Plates were sealed and shaken and allowed to stand at ambient temperature for 35 minutes to 1 hour (preferably 35 minutes) to allow the beads to settle. Bound radioactive product was measured using a WALLAC TRILUX 1450 Microbeta scintillation counter. For inhibition curves, 10 concentrations ([…]) of each compound were assayed. Curves were analysed using ActivityBase and XLfit (ID Businesss Solutions Limited, 2 Ocean Court, Surrey Research Park, Guildford, Surrey GU2 7QB, United Kindgom) Results were expressed as pIC50 values.
# The ability of compounds to inhibit catalytic activity at PDE4B (human recombinant) or PDE4D (human recombinant) was determined by IMAP Fluorescence Polarisation (FP) assay (IAP Explorer kit, available from Molecular Devices Corporation, Sunnydale, Calif., USA; Molecular Devices code: R8062) in 384-well format. The IMAP FP assay is able to measure PDE activity in an homogenous, non-radioactive assay format. The FP assay uses the ability of immobilised trivalent metal cations, coated onto nanoparticles (tiny beads), to bind the phosphate group of Fl-AMP that is produced on the hydrolysis of fluorescein-labelled (Fl) cyclic adenosine mono-phosphate (Fl-cAMP) to the non-cyclic Fl-AMP form. […] Binding of Fl-AMP product to the beads (coated with the immobilised trivalent cations) slows the rotation of the bound Fl-AMP and leads to an increase in the fluorescence polarisation ratio of parallel to perpendicular light. Inhibition of the PDE reduces/inhibits this signal increase. […]
# T1 sequence (Q07343 1-564 isoform Q07343-2): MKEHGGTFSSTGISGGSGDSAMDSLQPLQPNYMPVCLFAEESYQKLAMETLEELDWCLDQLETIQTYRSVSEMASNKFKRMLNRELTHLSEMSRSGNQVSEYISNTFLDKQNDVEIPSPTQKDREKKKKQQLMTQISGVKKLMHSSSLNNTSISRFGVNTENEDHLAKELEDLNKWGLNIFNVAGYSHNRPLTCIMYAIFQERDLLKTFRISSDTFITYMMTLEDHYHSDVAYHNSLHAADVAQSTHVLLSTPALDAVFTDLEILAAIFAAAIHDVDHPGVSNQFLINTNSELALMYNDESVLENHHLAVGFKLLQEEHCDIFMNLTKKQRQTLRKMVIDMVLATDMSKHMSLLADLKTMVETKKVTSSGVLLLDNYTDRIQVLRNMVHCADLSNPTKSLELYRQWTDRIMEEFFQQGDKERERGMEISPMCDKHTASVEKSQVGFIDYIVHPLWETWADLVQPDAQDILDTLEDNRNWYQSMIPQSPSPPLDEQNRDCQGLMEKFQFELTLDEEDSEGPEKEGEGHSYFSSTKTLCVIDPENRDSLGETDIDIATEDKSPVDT
row,IC50,SMILES
1,0.794 to 31.6 nM,"CCn1ncc2c(NC3CCCC3)c(-c3nnc(CS(C)(=O)=O)o3)cnc21 [Example 2, N-Cyclopentyl-1-ethyl-5-{5-[(methylsulfonyl)methyl]-1,3,4-oxadiazol-2-yl}-1H-pyrazolo[3,4-b]pyridin-4-amine]"
2,7.94 nM,"CCn1ncc2c(NC3CCCC3)c(-c3nnc(C(C)C)s3)cnc21 [Example 6, N-Cyclopentyl-1-ethyl-5-(5-isopropyl-1,3,4-thiadiazol-2-yl)-1H-pyrazolo[3,4-b]pyridin-4-amine]"
3,63.1 to 251 nM,"CCn1ncc2c(Nc3ccc(F)cc3)c(-c3nc(C)no3)cnc21 [Example 7, 1-Ethyl-N-(4-fluorophenyl)-5-(3-methyl-1,2,4-oxadiazol-5-yl)-1H-pyrazolo[3,4-b]pyridin-4-amine]"
4,6.31 nM,"CCn1ncc2c(NC3CCCCC3)c(-c3nnc(C(C)C)o3)cnc21 [Example 10, N-Cyclohexyl-1-ethyl-5-(5-isopropyl-1,3,4-oxadiazol-2-yl)-1H-pyrazolo[3,4-b]pyridin-4-amine]"
5,12.6 nM,"CCn1ncc2c(NCC(C)C)c(-c3nnc(C)o3)cnc21 [Example 12, 1-Ethyl-N-isobutyl-5-(5-methyl-1,3,4-oxadiazol-2-yl)-1H-pyrazolo[3,4-b]pyridin-4-amine]"
6,6.31 nM,"CCn1ncc2c(NC3CCCCC3)c(-c3nnc(CS(C)(=O)=O)o3)cnc21 [Example 24, N-Cyclohexyl-1-ethyl-5-{5-[(methylsulfonyl)methyl]-1,3,4-oxadiazol-2-yl}-1H-pyrazolo[3,4-b]pyridin-4-amine]"
7,0.794 to 31.6 nM,"CCn1ncc2c(N[C@@H](C)C(C)C)c(-c3nnc(CS(C)(=O)=O)o3)cnc21 [Example 26, N-[(1S)-1,2-dimethylpropyl]-1-ethyl-5-{5-[(methylsulfonyl)methyl]-1,3,4-oxadiazol-2-yl}-1H-pyrazolo[3,4-b]pyridin-4-amine]"
8,0.794 to 31.6 nM,"CCn1ncc2c(NC3CCOCC3)c(-c3nnc(C4(C)COC4)o3)cnc21 [Example 34, 1-Ethyl-5-[5-(3-methyloxetan-3-yl)-1,3,4-oxadiazol-2-yl]-N-(tetrahydro-2H-pyran-4-yl)-1H-pyrazolo[3,4-b]pyridin-4-amine]"
9,0.794 to 31.6 nM,"CCn1ncc2c(NC3CCOCC3)c(-c3nnc(CN4CCOCC4)o3)cnc21 [Example 39, 1-Ethyl-5-[5-(morpholin-4-ylmethyl)-1,3,4-oxadiazol-2-yl]-N-(tetrahydro-2H-pyran-4-yl)-1H-pyrazolo[3,4-b]pyridin-4-amine]"
10,5.01 nM,"CCn1ncc2c(NC3CCOCC3)c(C3=NC(C)CO3)cnc21 (centres unmarked) [Example 42, 1-Ethyl-5-(4-methyl-4,5-dihydro-1,3-oxazol-2-yl)-N-(tetrahydro-2H-pyran-4-yl)-1H-pyrazolo[3,4-b]pyridin-4-amine]"
11,63.1 to 251 nM,"CCCn1ncc2c(NC3CCOCC3)c(-c3nnc(C)o3)cnc21 [Example 43, 1-n-Propyl-5-(5-methyl-1,3,4-oxadiazol-2-yl)-N-(tetrahydro-2H-pyran-4-yl)-1H-pyrazolo[3,4-b]pyridin-4-amine]"
12,0.794 to 31.6 nM,"CCn1ncc2c(NC3CCOCC3)c(-c3nnc(C4CCCO4)o3)cnc21 (centres unmarked) [Example 44, 1-Ethyl-5-[5-(tetrahydrofuran-2-yl)-1,3,4-oxadiazol-2-yl]-N-(tetrahydro-2H-pyran-4-yl)-1H-pyrazolo[3,4-b]pyridin-4-amine]"
13,63.1 to 251 nM,"CCn1ncc2c(NC3CCN(C(C)=O)CC3)c(-c3nc(CN4CCOCC4)no3)cnc21 [Example 48, N-(1-Acetylpiperidin-4-yl)-1-ethyl-5-[3-(morpholin-4-ylmethyl)-1,2,4-oxadiazol-5-yl]-1H-pyrazolo[3,4-b]pyridin-4-amine]"
14,0.794 to 31.6 nM,"CCn1ncc2c(NC3CCOCC3)c(C3=N[C@@H](c4ccccc4)CO3)cnc21 [Example 50, 1-Ethyl-5-[(4S)-4-phenyl-4,5-dihydro-1,3-oxazol-2-yl]-N-(tetrahydro-2H-pyran-4-yl)-1H-pyrazolo[3,4-b]pyridin-4-amine]"
